Test results published in patent publication US20080009418A1, “Selective Inhibitors” (Alchemia LTD., priority 2004, published 2008).

Key:
[1] = target: T1, Human δ-opioid (DOP) (Homo sapiens, UniProt P41143); assay: Radioligand binding, human δ-opioid (DOP) membranes, FlashPlate, [3H]-Bremazocine; details: compound at 10 μM, [3H]-Bremazocine; for A1: inhibition of radioligand binding: human DOP membranes
T1 construct: purchased Perkin Elmer Biosignal
Method in brief: (§1)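 Cloned human receptor membranes were coated onto FlashPlate wells and incubated with radioligand and compound (added from a 0.5 mM DMSO daughter plate) for 1 hour at room temperature in the dark. Scintillation counting gave percent inhibition, with DMSO defining total and reference ligand defining non-specific binding.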

[2] = target: T2, Human κ-Opioid (KOP) (Homo sapiens, UniProt P41145); assay: Radioligand binding, human κ-opioid (KOP) membranes, filtration, [3H]-Diprenorphine; details: compound at 10 μM, [3H]-Diprenorphine; for A2: inhibition of radioligand binding: human KOP membranes
T2 construct: purchased Perkin Elmer Biosignal
T2 sequence (P41145 whole entry): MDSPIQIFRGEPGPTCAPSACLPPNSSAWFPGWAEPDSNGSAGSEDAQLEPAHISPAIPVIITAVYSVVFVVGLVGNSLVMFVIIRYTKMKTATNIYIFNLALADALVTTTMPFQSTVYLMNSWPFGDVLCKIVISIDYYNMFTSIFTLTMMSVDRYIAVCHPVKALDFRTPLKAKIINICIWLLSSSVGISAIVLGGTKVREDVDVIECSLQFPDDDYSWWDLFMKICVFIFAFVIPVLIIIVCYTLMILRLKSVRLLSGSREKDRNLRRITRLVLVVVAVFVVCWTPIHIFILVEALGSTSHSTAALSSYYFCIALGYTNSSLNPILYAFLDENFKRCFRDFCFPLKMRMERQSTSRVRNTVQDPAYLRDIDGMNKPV
Method in brief: (§2)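 Filtration binding on cloned human receptor membranes (1 Unit/well), [125I]-Substance P for NK1 and [3H]-Diprenorphine for KOP, 1 h at room temperature. Filters PEI-presoaked, washed with cold 50 mM Tris-HCl pH 7.4, counted by scintillation; percent inhibition calculated, reference ligand defining non-specific binding.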

[3] = target: T3, Human Melanocortin (MC3) (Homo sapiens, UniProt P41968); assay: Radioligand binding, human melanocortin MC3 membranes, FlashPlate, [125I]-NDP-αMSH; details: compound at 10 μM, [125I]-NDP-αMSH; for A3: inhibition of radioligand binding: human MC3 membranes
T3 construct: purchased Perkin Elmer Biosignal
T3 sequence (P41968 whole entry): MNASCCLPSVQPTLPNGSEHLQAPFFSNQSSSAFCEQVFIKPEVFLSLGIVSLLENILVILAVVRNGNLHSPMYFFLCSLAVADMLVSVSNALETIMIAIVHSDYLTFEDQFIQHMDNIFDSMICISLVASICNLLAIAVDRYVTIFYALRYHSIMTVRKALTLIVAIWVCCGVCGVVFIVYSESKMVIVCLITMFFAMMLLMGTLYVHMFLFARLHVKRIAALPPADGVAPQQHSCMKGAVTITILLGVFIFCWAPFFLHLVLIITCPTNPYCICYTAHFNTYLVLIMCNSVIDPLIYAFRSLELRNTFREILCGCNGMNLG
Method in brief: as §1

[4] = target: T4, Human Melanocortin (MC4) (Homo sapiens, UniProt P32245); assay: Radioligand binding, human melanocortin MC4 membranes, FlashPlate, [125I]-NDP-αMSH; details: compound at 10 μM, [125I]-NDP-αMSH; for A4: inhibition of radioligand binding: human MC4 membranes
T4 construct: purchased Perkin Elmer Biosignal
T4 sequence (P32245 whole entry): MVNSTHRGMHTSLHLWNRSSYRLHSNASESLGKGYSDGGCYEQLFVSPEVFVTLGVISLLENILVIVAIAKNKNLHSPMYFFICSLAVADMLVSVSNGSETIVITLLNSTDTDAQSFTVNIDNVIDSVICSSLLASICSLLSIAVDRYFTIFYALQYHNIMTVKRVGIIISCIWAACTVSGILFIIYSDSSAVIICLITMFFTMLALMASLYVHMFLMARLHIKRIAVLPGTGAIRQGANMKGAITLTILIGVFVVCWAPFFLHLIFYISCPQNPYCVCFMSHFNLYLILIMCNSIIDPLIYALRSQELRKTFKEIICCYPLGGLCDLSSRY
Method in brief: as §1

[5] = target: T5, Human melanocortin (MC5) (Homo sapiens, UniProt P33032); assay: Radioligand binding, human melanocortin MC5 membranes, FlashPlate, [125I]-NDP-αMSH; details: compound at 10 μM, [125I]-NDP-αMSH; for A5: inhibition of radioligand binding: human MC5 membranes
T5 construct: purchased Perkin Elmer Biosignal
T5 sequence (P33032 whole entry): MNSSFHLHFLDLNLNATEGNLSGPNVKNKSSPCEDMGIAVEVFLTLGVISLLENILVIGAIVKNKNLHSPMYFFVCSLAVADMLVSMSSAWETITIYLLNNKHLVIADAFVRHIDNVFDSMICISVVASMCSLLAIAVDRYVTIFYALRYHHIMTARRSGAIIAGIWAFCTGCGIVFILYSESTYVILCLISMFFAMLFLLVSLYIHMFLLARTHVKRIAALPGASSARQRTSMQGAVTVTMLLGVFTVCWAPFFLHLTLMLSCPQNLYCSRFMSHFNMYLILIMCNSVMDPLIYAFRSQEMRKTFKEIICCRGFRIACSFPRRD
Method in brief: as §1

[6] = target: T6, Human melanin-concentrating hormone (MCH1) (Homo sapiens, UniProt Q99705); assay: Radioligand binding, human melanin-concentrating hormone MCH1 membranes, FlashPlate, [125I]-S36057; details: compound at 10 μM; for A6: inhibition of radioligand binding: [125I]-S36057, human MCH1 membranes
T6 construct: purchased Perkin Elmer Biosignal
T6 sequence (Q99705 whole entry): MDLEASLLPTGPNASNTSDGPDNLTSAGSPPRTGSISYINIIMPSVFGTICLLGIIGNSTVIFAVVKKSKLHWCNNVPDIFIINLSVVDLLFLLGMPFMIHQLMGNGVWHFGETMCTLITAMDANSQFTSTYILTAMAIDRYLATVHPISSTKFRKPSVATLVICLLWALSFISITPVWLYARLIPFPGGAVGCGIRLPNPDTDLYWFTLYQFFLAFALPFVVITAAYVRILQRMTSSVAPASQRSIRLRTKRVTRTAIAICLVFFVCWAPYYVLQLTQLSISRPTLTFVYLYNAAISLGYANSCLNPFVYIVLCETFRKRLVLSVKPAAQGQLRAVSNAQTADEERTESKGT
Method in brief: as §1

[7] = target: T7, Human μ-opioid (MOP) (Homo sapiens, UniProt P35372); assay: Radioligand binding, human μ-opioid (MOP) membranes, FlashPlate, [3H]-Naloxone; details: compound at 10 μM, [3H]-Naloxone; for A7: inhibition of radioligand binding: human MOP membranes
T7 construct: purchased Perkin Elmer Biosignal
T7 sequence (P35372 whole entry): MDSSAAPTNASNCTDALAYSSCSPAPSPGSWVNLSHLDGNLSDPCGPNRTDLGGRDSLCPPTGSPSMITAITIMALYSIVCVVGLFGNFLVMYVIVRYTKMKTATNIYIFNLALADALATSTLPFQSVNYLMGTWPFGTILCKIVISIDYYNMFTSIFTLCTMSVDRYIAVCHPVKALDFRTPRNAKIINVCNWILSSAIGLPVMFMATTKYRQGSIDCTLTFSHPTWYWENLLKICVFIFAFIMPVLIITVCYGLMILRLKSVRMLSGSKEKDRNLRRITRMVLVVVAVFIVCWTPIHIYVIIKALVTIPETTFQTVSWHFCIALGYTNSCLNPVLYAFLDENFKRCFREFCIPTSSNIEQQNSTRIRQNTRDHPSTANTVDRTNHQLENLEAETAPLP
Method in brief: as §1

[8] = target: T8, Human neurokinin (NK1) (Homo sapiens, UniProt P25103); assay: Radioligand binding, human neurokinin NK1 membranes, filtration, [125I]-Substance P; details: compound at 10 μM, [125I]-Substance P; for A8: inhibition of radioligand binding: human NK1 membranes
T8 construct: purchased Perkin Elmer Biosignal
T8 sequence (P25103 whole entry): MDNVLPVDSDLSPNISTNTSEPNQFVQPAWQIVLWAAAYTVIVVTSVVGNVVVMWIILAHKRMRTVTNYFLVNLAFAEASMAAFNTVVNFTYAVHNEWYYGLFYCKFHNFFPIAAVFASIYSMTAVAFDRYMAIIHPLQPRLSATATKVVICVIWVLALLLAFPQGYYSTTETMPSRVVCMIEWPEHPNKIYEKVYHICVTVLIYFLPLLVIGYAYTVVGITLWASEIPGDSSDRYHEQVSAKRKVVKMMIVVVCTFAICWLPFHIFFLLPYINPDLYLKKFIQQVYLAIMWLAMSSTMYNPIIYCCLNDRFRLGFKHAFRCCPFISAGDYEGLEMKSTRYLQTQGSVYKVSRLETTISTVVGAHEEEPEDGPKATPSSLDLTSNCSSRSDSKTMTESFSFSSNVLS
Method in brief: as §2

[9] = target: T9, Human neuropeptide Y (NPY-Y1) (Homo sapiens, UniProt P25929); assay: Radioligand binding, human neuropeptide Y NPY-Y1 membranes, FlashPlate, [125I]-PYY; details: compound at 10 μM, [125I]-PYY; for A9: inhibition of radioligand binding: human NPY-Y1 membranes
T9 construct: purchased Perkin Elmer Biosignal
T9 sequence (P25929 1-384): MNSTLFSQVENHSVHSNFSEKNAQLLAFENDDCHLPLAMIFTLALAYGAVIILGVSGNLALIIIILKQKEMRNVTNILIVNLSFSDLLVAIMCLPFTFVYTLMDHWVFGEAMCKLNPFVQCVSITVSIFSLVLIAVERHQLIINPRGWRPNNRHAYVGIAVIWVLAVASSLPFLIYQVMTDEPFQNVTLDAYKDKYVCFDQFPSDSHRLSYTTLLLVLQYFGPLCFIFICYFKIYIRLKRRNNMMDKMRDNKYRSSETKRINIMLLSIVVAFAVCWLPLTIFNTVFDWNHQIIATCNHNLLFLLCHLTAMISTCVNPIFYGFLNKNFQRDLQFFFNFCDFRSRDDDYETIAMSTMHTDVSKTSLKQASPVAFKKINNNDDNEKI
Method in brief: as §1

[10] = target: T10, Human opioid (ORL1) (Homo sapiens, UniProt P41146); assay: Radioligand binding, human opioid ORL1 membranes, FlashPlate, [125I]-Nociceptin; details: compound at 10 μM, [125I]-Nociceptin; for A10: inhibition of radioligand binding: human ORL1 membranes
T10 construct: purchased Perkin Elmer Biosignal
T10 sequence (P41146 whole entry): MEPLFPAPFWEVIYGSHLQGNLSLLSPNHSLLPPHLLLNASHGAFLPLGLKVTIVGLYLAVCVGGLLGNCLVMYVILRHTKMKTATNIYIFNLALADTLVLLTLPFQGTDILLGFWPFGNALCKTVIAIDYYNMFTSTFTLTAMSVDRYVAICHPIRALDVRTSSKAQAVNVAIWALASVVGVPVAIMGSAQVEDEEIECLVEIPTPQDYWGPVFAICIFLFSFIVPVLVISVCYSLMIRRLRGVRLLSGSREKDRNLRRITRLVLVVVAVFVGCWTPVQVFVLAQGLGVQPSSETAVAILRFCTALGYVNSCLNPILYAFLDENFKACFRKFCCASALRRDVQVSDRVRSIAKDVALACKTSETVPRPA
Method in brief: as §1

[11] = target: T11, Mouse urotensin (mUR2) (Mus musculus, UniProt Q8VIH9); assay: Radioligand binding, mouse urotensin mUR2 membranes, FlashPlate, [125I]-Urotensin II; details: compound at 10 μM, [125I]-Urotensin II; for A11: inhibition of radioligand binding: mouse mUR2 membranes
T11 construct: purchased Perkin Elmer Biosignal
T11 sequence (Q8VIH9 1-385): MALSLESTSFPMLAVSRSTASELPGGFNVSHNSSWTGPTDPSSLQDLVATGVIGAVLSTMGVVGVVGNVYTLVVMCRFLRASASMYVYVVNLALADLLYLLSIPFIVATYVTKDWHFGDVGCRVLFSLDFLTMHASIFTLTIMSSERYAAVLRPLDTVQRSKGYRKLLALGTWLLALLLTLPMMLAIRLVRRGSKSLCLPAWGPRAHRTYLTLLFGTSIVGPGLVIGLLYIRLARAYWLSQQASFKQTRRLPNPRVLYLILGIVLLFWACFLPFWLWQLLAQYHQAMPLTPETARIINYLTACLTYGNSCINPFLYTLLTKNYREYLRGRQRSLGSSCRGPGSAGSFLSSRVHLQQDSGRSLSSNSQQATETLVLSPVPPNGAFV
Method in brief: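 Cloned mouse urotensin (mUR2) receptor membranes from Perkin Elmer Biosignal were immobilized in FlashPlate microplates using a proprietary coating. Each well got 19.5 μl buffer, then 0.5 μl of DMSO, reference ligand, or compound. Adding 5 μl of [125I]-Urotensin II, diluted to 5× final concentration in binding buffer, started binding. Plates were sealed with TopSeal-A and incubated 1 hour at room temperature in the dark. Wells were counted for 30 seconds each on a TopCount after a 60-second delay, and percentage inhibition was calculated.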

T1 sequence (P41143 whole entry): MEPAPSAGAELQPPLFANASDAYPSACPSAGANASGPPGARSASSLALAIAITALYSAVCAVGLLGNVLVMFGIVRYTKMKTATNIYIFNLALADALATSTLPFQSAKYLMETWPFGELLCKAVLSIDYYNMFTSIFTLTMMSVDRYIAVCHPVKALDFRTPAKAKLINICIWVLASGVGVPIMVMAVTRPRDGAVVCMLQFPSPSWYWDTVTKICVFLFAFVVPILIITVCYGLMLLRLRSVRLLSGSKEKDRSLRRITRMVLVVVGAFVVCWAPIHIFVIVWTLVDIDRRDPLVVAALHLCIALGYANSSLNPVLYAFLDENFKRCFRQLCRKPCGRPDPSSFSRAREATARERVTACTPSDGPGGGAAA

Row | Structure (SMILES) | A1: inhibition of radioligand binding [1] | A2: inhibition of radioligand binding [2] | A5: inhibition of radioligand binding [5] | A6: inhibition of radioligand binding [6] | A7: inhibition of radioligand binding [7] | A8: inhibition of radioligand binding [8] | A9: inhibition of radioligand binding [9] | A11: inhibition of radioligand binding [11] | A3: inhibition of radioligand binding [3] | A4: inhibition of radioligand binding [4] | A10: inhibition of radioligand binding [10] | also measured
1 | NCCCC(=O)NC1C(OCc2ccc3ccccc3c2)OC(COCc2ccc(Cl)cc2)C(O)C1OCc1ccccc1 (single isomer, unassigned) [compound 469] | − (“−” indicates less than 50% inhibition at 10 μM) | − (“−” indicates less than 50% inhibition at 10 μM) | + (“+” indicates greater than 50% inhibition at 10 μM) | − (“−” indicates less than 50% inhibition at 10 μM) | − (“−” indicates less than 50% inhibition at 10 μM) | + (“+” indicates greater than 50% inhibition at 10 μM) | − (“−” indicates less than 50% inhibition at 10 μM) | − (“−” indicates less than 50% inhibition at 10 μM) | – | – | – | A3: inhibition of radioligand binding ([3]; 10 µM): − (“−” indicates less than 50% inhibition at 10 μM); A4: inhibition of radioligand binding ([4]; 10 µM): + (“+” indicates greater than 50% inhibition at 10 μM); A10: inhibition of radioligand binding ([10]; 10 µM): − (“−” indicates less than 50% inhibition at 10 μM)
2 | NCCC(=O)N[C@H]1C(OCc2ccc3ccccc3c2)O[C@H](COCc2ccc3ccccc3c2)[C@@H](O)[C@@H]1OCc1ccc(Cl)cc1 (stereo partly shown) [compound 437] | − (“−” indicates less than 50% inhibition at 10 μM) | − (“−” indicates less than 50% inhibition at 10 μM) | + (“+” indicates greater than 50% inhibition at 10 μM) | + (“+” indicates greater than 50% inhibition at 10 μM) | − (“−” indicates less than 50% inhibition at 10 μM) | + (“+” indicates greater than 50% inhibition at 10 μM) | − (“−” indicates less than 50% inhibition at 10 μM) | − (“−” indicates less than 50% inhibition at 10 μM) | + (“+” indicates greater than 50% inhibition at 10 μM) | + (“+” indicates greater than 50% inhibition at 10 μM) | − (“−” indicates less than 50% inhibition at 10 μM) | –
3 | N=C(N)NCCC(=O)NC1C(OCc2ccc(Cl)cc2)OC(COCc2ccccc2)C(O)C1OCc1ccc(Cl)cc1 (stereo not shown) [compound 427] | − (“−” indicates less than 50% inhibition at 10 μM) | − (“−” indicates less than 50% inhibition at 10 μM) | + (“+” indicates greater than 50% inhibition at 10 μM) | + (“+” indicates greater than 50% inhibition at 10 μM) | − (“−” indicates less than 50% inhibition at 10 μM) | + (“+” indicates greater than 50% inhibition at 10 μM) | − (“−” indicates less than 50% inhibition at 10 μM) | − (“−” indicates less than 50% inhibition at 10 μM) | + (“+” indicates greater than 50% inhibition at 10 μM) | + (“+” indicates greater than 50% inhibition at 10 μM) | + (“+” indicates greater than 50% inhibition at 10 μM) | –
4 | CO[C@H]1[C@H](O)[C@@H](COCc2cccc(O)c2)OC(OCc2ccc3ccccc3c2)[C@@H]1NC(=O)CNC(=N)N (stereo partly shown) [compound 150] | – | – | – | – | – | – | – | – | – | – | – | A1 radioligand binding, percentage inhibition [1]: − (“−” indicates less than 50% inhibition at 10 μM); A2 radioligand binding, percentage inhibition [2]: + (“+” indicates greater than 50% inhibition at 10 μM); A3 radioligand binding, percentage inhibition [3]: − (“−” indicates less than 50% inhibition at 10 μM); A4 radioligand binding, percentage inhibition [4]: − (“−” indicates less than 50% inhibition at 10 μM); A5 radioligand binding, percentage inhibition [5]: + (“+” indicates greater than 50% inhibition at 10 μM); A6 radioligand binding, percentage inhibition ([6]; [125I]-S36057): − (“−” indicates less than 50% inhibition at 10 μM); A7 radioligand binding, percentage inhibition [7]: + (“+” indicates greater than 50% inhibition at 10 μM); A8 radioligand binding, percentage inhibition [8]: − (“−” indicates less than 50% inhibition at 10 μM); A9 radioligand binding, percentage inhibition [9]: − (“−” indicates less than 50% inhibition at 10 μM); A10 radioligand binding, percentage inhibition [10]: − (“−” indicates less than 50% inhibition at 10 μM); A11 radioligand binding, percentage inhibition [11]: − (“−” indicates less than 50% inhibition at 10 μM)
5 | N=C(N)NCC(=O)NC1C(OCc2ccc(-c3ccccc3)cc2)OC(COCc2ccc(Cl)cc2)C(O)C1OCc1ccc(Cl)cc1 (stereo not shown) [compound 401] | − (“−” indicates less than 50% inhibition at 10 μM) | − (“−” indicates less than 50% inhibition at 10 μM) | + (“+” indicates greater than 50% inhibition at 10 μM) | + (“+” indicates greater than 50% inhibition at 10 μM) | − (“−” indicates less than 50% inhibition at 10 μM) | + (“+” indicates greater than 50% inhibition at 10 μM) | − (“−” indicates less than 50% inhibition at 10 μM) | − (“−” indicates less than 50% inhibition at 10 μM) | + (“+” indicates greater than 50% inhibition at 10 μM) | + (“+” indicates greater than 50% inhibition at 10 μM) | + (“+” indicates greater than 50% inhibition at 10 μM) | –
